In this test the test system is young oophorectomized rats. The test is described as follows: Estrogenic activity (uterine wet weight) in young oophorectomized rats. The test is classed as in vivo, Sprague-Dawley rats. The text has this: Test Example 1 Estrogenic activity of 7-isopropoxy-3-(4-hydroxyphenyl)-4H-1-benzopyran-4-one (hereinafter referred to as compound A) in young oophorectomized rats Sprague-Dawley rats, 33 days old and 11 days after oophorectomy for elimination of endogenous estrogenic activity, were used in groups of 6 to 7 animals. Compound A was suspended in a 1% aqueous solution of hydroxypropyl-cellulose and administered orally for 3 days, while as a representative example of the conventional estrogen drug, estrone was dissolved in sesame oil and administered subcutaneously for 3 days. On the fourth day, each animal was autopsied and its uterine wet weight was recorded.

These results are taken from patent EP0136569A2, “Isoflavone derivatives, their production and use” (Takeda Chemical Industries, Ltd., priority 1983, dated 1985).

Consider `C[C@]12CC[C@@H]3c4ccc(O)cc4CC[C@H]3[C@@H]1CCC2=O` [Estrone, estrone, reference compound], for which the “Uterine wet weight (mg ± S.D.)” value is reported as 121.1 ± 7.0 mg (daily dose 0.0025 mg/kg, subcutaneously for 3 days in sesame oil, n=7, significant vs control (P<0.01)); 200.5 ± 14.3 mg (daily dose 0.005 mg/kg, subcutaneously for 3 days in sesame oil, n=7, significant vs control (P<0.01)); 247.2 ± 14.6 mg (daily dose 0.01 mg/kg, subcutaneously for 3 days in sesame oil, n=7, significant vs control (P<0.01)).
Regarding `CC(C)Oc1ccc2c(=O)c(-c3ccc(O)cc3)coc2c1` [Compound A, 7-isopropoxy-3-(4-hydroxyphenyl)-4H-1-benzopyran-4-one], the “Uterine wet weight (mg ± S.D.)” value is, setting by setting: (daily dose 6.25 mg/kg, orally for 3 days, autopsy on fourth day, n=7) 32.6 ± 1.2 mg; (daily dose 25 mg/kg, orally for 3 days, autopsy on fourth day, n=7) 39.2 ± 2.3 mg; (daily dose 100 mg/kg, orally for 3 days, autopsy on fourth day, n=7, significant vs control (P<0.01)) 56.3 ± 3.7 mg; (daily dose 400 mg/kg, orally for 3 days, autopsy on fourth day, n=6, significant vs control (P<0.01)) 83.0 ± 6.9 mg. Besides, the “uterine weight increasing effect, dose-response curve” value (orally for 3 days, daily dose levels of 100 mg/kg and 400 mg/kg) is reported as “uterine weight increasing effect with a dose-response curve of moderate gradient”.
